According to patent US20080280879A1, “SUBSTITUTED HETEROCYCLIC DERIVATIVES AND THEIR PHARMACEUTICAL USE AND COMPOSITIONS” (priority 2007, published 2008):
Values after ≈ are worked out from the molar mass of the structure shown.

Tests used:
Assay type in all cases: cell-based, Staphylococcus aureus
Staph aureus 2811 = experiment: MIC, microtiter broth dilution (CLSI M7-A7), Assay 1, Table 12 column D, no serum; details: for MIC: Staphylococcus aureus, 2811, Staph aureus 2811, Assay 1, no serum; for MIC, column D: Staph aureus 2811, Assay 1, no serum
Procedure, shortened: (§1)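 Broth microdilution in microtiter trays per CLSI M7-A7, interpreted per M100-S16; MIC (μg/ml) is the lowest concentration preventing visible growth. Serum condition used Mueller-Hinton Broth with 50% pooled inactivated human serum. Repeated runs reported as geometric mean.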

Staph aureus 1146 [1] = experiment: MIC, microtiter broth dilution (CLSI M7-A7), Assay 1, Table 12 column B, no serum; details: for MIC: Staphylococcus aureus, 1146, Staph aureus 1146, Assay 1, no serum; for MIC, column B: Staph aureus 1146, Assay 1, no serum
Procedure, shortened: as §1

Staph aureus 2812 = experiment: MIC, microtiter broth dilution (CLSI M7-A7), Assay 1, Table 12 column E, no serum; details: for MIC: Staphylococcus aureus, 2812, Staph aureus 2812, Assay 1, no serum; for MIC, column E: Staph aureus 2812, Assay 1, no serum
Procedure, shortened: as §1

Staph aureus 1146 [2] = experiment: MIC in Mueller-Hinton Broth with 50% pooled inactivated human serum, Assay 1, Table 12; details: for MIC: Staphylococcus aureus, 1146, Staph aureus 1146, Assay 1, 50% human serum, read-out: MIC, column C; for MIC, column C: Staph aureus 1146, Assay 1, 50% human serum
Procedure, shortened: as §1

Staph aureus 1095 MRSA = experiment: MIC, microtiter broth dilution (CLSI M7-A7), Assay 1, Table 12 column A, no serum; details: Assay 1, no serum; for MIC: Staphylococcus aureus, MRSA
Procedure, shortened: as §1

Row | Compound | MIC (Staph aureus 2811) [µg/mL] | MIC (Staph aureus 1146 [1]) [µg/mL] | MIC (Staph aureus 2812) [µg/mL] | MIC (Staph aureus 1146 [2]) [µg/mL] | MIC (Staph aureus 1095 MRSA) [µg/mL] | MIC, column C (Staph aureus 1146 [2]) [µg/mL] | MIC, column D (Staph aureus 2811) [µg/mL] | MIC, column B (Staph aureus 1146 [1]) [µg/mL] | MIC, column E (Staph aureus 2812) [µg/mL] | MIC, column A (Staph aureus 1095 MRSA) [µg/mL]
1 | COc1ccc2nccc([C@@H](O)CC[C@@H]3CCN(C4CC(c5ccc(F)cc5F)C4)C[C@@H]3C(=O)O)c2c1 (stereo partly drawn) [Example 37, (3R,4R)-1-[3-(2,4-difluorophenyl)cyclobutyl]-4-[(3S)-3-hydroxy-3-(6-methoxyquinolin-4-yl)propyl] piperidine-3-carboxylic acid] | ≤ 0.0625 | ≤ 0.0625 | 0.25 (≈ 0.49 µM) | 1 (≈ 1.96 µM) | 0.25 (≈ 0.49 µM) |  |  |  |  | 
2 | COc1ccc2nccc(C(O)CC[C@@H]3CCN(C4CC(c5cc(F)ccc5F)C4)C[C@@H]3C(=O)O)c2c1 (stereo partly drawn) [Example 38, (3R,4R)-1-[3-(2,5-difluorophenyl)cyclobutyl]-4-[3-hydroxy-3-(6-methoxyquinolin-4-yl)propyl] piperidine-3-carboxylic acid] | 0.125 (≈ 0.245 µM) | 0.125 (≈ 0.245 µM) | 0.125 (≈ 0.245 µM) | 4 (≈ 7.83 µM) | 0.25 (≈ 0.49 µM) |  |  |  |  | 
3 | COc1ccc2nccc([C@@H](O)CC[C@@H]3CCN(C4CC(c5ccc(Cl)cc5F)C4)C[C@@H]3C(=O)O)c2c1 (stereo partly drawn) [Example 65, (3R,4R)-1-[3-(4-chloro-2-fluorophenyl)cyclobutyl]-4-[(3S)-3-hydroxy-3-(6-methoxyquinolin-4-yl)propyl]piperidine-3-carboxylic acid] | 0.25 (≈ 0.474 µM) | 0.25 (≈ 0.474 µM) | 1 (≈ 1.9 µM) | 16 (≈ 30.4 µM) | 1 (≈ 1.9 µM) |  |  |  |  | 
4 | CCCc1noc(C2CC(N3CC[C@@H](CCC(O)c4ccnc5ccc(OC)cc45)[C@@H](C(=O)O)C3)C2)n1 (stereo partly drawn) [Example 167, (3R,4R)-4-[3-hydroxy-3-(6-methoxyquinolin-4-yl)propyl]-1-[3-(3-propyl-1,2,4-oxadiazol-5-yl)cyclobutyl]piperidine-3-carboxylic acid] | > 64 | > 64 | > 64 | > 64 | > 64 |  |  |  |  | 
5 | COc1ccc2nccc(C(O)CC[C@@H]3CCN(C4CC(C)(c5ccccc5)C4)C[C@@H]3C(=O)O)c2c1 (stereo partly drawn) [Example 42, (3R,4R)-4-[3-hydroxy-3-(6-methoxyquinolin-4-yl)propyl]-1-(3-methyl-3-phenylcyclobutyl)piperidine-3-carboxylic acid] | > 64 | > 64 | 32 (≈ 65.5 µM) | 32 (≈ 65.5 µM) | > 64 |  |  |  |  | 
6 | COc1ccc2nccc([C@@H](O)CC[C@@H]3CCN(C4CC(c5cccc(C(F)(F)F)c5F)C4)C[C@@H]3C(=O)O)c2c1 (stereo partly drawn) [Example 193, (3R,4R)-1-{3-[2-fluoro-3-(trifluoromethyl)phenyl]cyclobutyl}-4-[(3S)-3-hydroxy-3-(6-methoxyquinolin-4-yl)propyl]piperidine-3-carboxylic acid] | 0.125 (≈ 0.223 µM) | 0.125 (≈ 0.223 µM) | 0.125 (≈ 0.223 µM) | 64 (≈ 114 µM) | 0.5 (≈ 0.892 µM) |  |  |  |  | 
7 | COc1ccc2nccc([C@@H](O)CC[C@@H]3CCN(C4CC(c5ccccc5F)C4)C[C@@H]3C(=O)O)c2c1 (stereo partly drawn) [Example 89, (3R,4R)-1-[3-(2-fluorophenyl)cyclobutyl]-4-[(3S)-3-hydroxy-3-(6-methoxyquinolin-4-yl)propyl]piperidine-3-carboxylic acid] | < 0.0625 | < 0.0625 | < 0.0625 | 0.5 (≈ 1.02 µM) | < 0.0625 |  |  |  |  | 
8 | COc1ccc2nccc([C@@H](O)CC[C@@H]3CCN(C4CC(c5c(F)cccc5Cl)C4)C[C@@H]3C(=O)O)c2c1 (stereo partly drawn) [Example 63, (3R,4R)-1-[3-(2-chloro-6-fluorophenyl)cyclobutyl]-4-[(3S)-3-hydroxy-3-(6-methoxyquinolin-4-yl)propyl]piperidine-3-carboxylic acid] | ≤ 0.0625 | ≤ 0.0625 | ≤ 0.0625 | 2 (≈ 3.79 µM) | 0.125 (≈ 0.237 µM) |  |  |  |  | 
9 | COc1ccc2ncc(F)c(C(O)CC[C@@H]3CCN(C4CC(c5c(F)cccc5F)C4)C[C@@H]3C(=O)O)c2n1 (stereo partly drawn) [Example 182, (3R,4R)-1-[3-(2,6-difluorophenyl)cyclobutyl]-4-[3-(3-fluoro-6-methoxy-1,5-naphthyridin-4-yl)-3-hydroxypropyl]piperidine-3-carboxylic acid] | < 0.0625 | < 0.0625 | < 0.0625 |  | < 0.0625 | 1.00 (≈ 1.89 µM) |  |  |  | 
10 | COc1ccc2ncc(F)c(C(O)CCC3(C(=O)O)CCN(C4CC(c5ccccc5)C4)CC3)c2c1 (stereo not drawn) [Example 24, 4-[3-(3-fluoro-6-methoxyquinolin-4-yl)-3-hydroxypropyl]-1-(3-phenylcyclobutyl)piperidine-4-carboxylic acid] | 4 (≈ 8.12 µM) | 4 (≈ 8.12 µM) | 8 (≈ 16.2 µM) | > 64 | 16 (≈ 32.5 µM) |  |  |  |  | 
11 | COc1ccc(C2CC(N3CC[C@@H](CC[C@H](O)c4ccnc5ccc(OC)cc45)[C@@H](C(=O)O)C3)C2)c(F)c1 (stereo partly drawn) [Example 220, (3R,4R)-1-[3-(2-fluoro-4-methoxyphenyl)cyclobutyl]-4-[(3S)-3-hydroxy-3-(6-methoxyquinolin-4-yl)propyl]piperidine-3-carboxylic acid] | 16 (≈ 30.6 µM) | 32 (≈ 61.2 µM) | 32 (≈ 61.2 µM) | > 64 | 64 (≈ 122 µM) |  |  |  |  | 
12 | COc1ccc2nccc(C(O)CC[C@@H]3CCN(C4CC(c5ccccc5F)C4)C[C@@H]3C(=O)O)c2c1 (stereo partly drawn) [Example 7, (3R,4R)-1-[3-(2-fluorophenyl)cyclobutyl]-4-[3-hydroxy-3-(6-methoxyquinolin-4-yl)propyl] piperidine-3-carboxylic acid] | 0.125 (≈ 0.254 µM) | 0.125 (≈ 0.254 µM) | 0.125 (≈ 0.254 µM) | 1 (≈ 2.03 µM) | 0.25 (≈ 0.508 µM) |  |  |  |  | 
13 | (3R,4R)-1-[3-(2,5-difluorophenyl)cyclobutyl]-4-[3-(3-fluoro-6-methoxy-1,5-naphthyridin-4-yl)-3-hydroxypropyl]piperidine-3-carboxylic acid [Example 219] |  |  |  |  |  | 2.00 | <0.0625 | <0.0625 | 0.125 | 0.250
14 | COc1ccc2ncc(F)c(C(O)CC[C@@H]3CCN(C4CC(c5c(F)cccc5F)C4)C[C@@H]3C(=O)O)c2c1 (stereo partly drawn) [Example 17, (3R,4R)-1-[3-(2,6-difluorophenyl)cyclobutyl]-4-[3-(3-fluoro-6-methoxyquinolin-4-yl)-3-hydroxypropyl]piperidine-3-carboxylic acid] | ≤ 0.0625 | ≤ 0.0625 | ≤ 0.0625 | 0.5 (≈ 0.946 µM) | ≤ 0.0625 |  |  |  |  | 
15 | COc1ccc2nccc([C@@H](O)CC[C@@H]3CCN(C4CC(c5cccc(C#N)c5)C4)C[C@@H]3C(=O)O)c2c1 (stereo partly drawn) [Example 226, (3R,4R)-1-(3-(3-cyanophenyl)cyclobutyl)-4-((S)-3-hydroxy-3-(6-methoxyquinolin-4-yl)propyl)piperidine-3-carboxylic acid] |  |  |  |  |  | 32 (≈ 64 µM) | 4 (≈ 8.01 µM) | 4 (≈ 8.01 µM) | 8 (≈ 16 µM) | 16 (≈ 32 µM)
16 | COc1ccc2ncc(F)c(CCCC3(C(=O)O)CCN(C4CC(c5ccccc5)C4)C3)c2c1 (stereo not drawn) [Example 173, 3-[3-(3-fluoro-6-methoxyquinolin-4-yl)propyl]-1-(3-phenylcyclobutyl)pyrrolidine-3-carboxylic acid] | < 0.0625 | < 0.0625 | < 0.0625 | 8 (≈ 17.3 µM) | < 0.0625 |  |  |  |  | 
17 | COc1ccc2ncnc(CCCC3(C(=O)O)CCN(C4CC(c5ccccc5)C4)CC3)c2c1 (stereo not drawn) [Example 111, 4-[3-(6-methoxyquinazolin-4-yl)propyl]-1-(3-phenylcyclobutyl)piperidine-4-carboxylic acid] | 1 (≈ 2.18 µM) | 2 (≈ 4.35 µM) | 1 (≈ 2.18 µM) | > 64 | 4 (≈ 8.7 µM) |  |  |  |  | 
18 | COc1ccc2ncc(F)c(C(O)CC[C@@H]3CCN(C4CC(c5c(F)cccc5F)C4)C[C@@H]3C(=O)O)c2n1 (stereo partly drawn) [Example 190, (3R,4R)-1-[3-(2,6-difluorophenyl)cyclobutyl]-4-[3-(3-fluoro-6-methoxy-1,5-naphthyridin-4-yl)-3-hydroxypropyl]piperidine-3-carboxylic acid] |  |  |  |  |  | 1.00 (≈ 1.89 µM) | <0.0625 | <0.0625 | 0.125 (≈ 0.236 µM) | <0.0625
19 | COc1ccc2nccc(C(O)CC[C@@H]3CCN(C4CC(Cc5cccc(F)c5)C4)C[C@@H]3C(=O)O)c2c1 (stereo partly drawn) [Example 192, (3R,4R)-1-[3-(3-fluorobenzyl)cyclobutyl]-4-[3-hydroxy-3-(6-methoxyquinolin-4-yl)propyl]piperidine-3-carboxylic acid] | 1 (≈ 1.97 µM) | 1 (≈ 1.97 µM) | 2 (≈ 3.95 µM) | 32 (≈ 63.2 µM) | 4 (≈ 7.9 µM) |  |  |  |  | 
20 | COc1ccc2nccc(C(O)CCC3CCN(C[C@@H]4C[C@H]4c4ccccc4)CC3C(=O)O)c2c1 (relative stereo) [Example 25, 4-[3-hydroxy-3-(6-methoxyquinolin-4-yl)propyl]-1-{[(trans)-2-phenylcyclopropyl]methyl}piperidine-3-carboxylic acid] | 1 (≈ 2.11 µM) | 2 (≈ 4.21 µM) | 1 (≈ 2.11 µM) | 4 (≈ 8.43 µM) | 2 (≈ 4.21 µM) |  |  |  |  | 
21 | COc1ccc2ncc(Cl)c(CCCC3(C(=O)O)CCN(C4CC(c5ccccc5)C4)C3)c2c1 (stereo not drawn) [Example 86, 3-[3-(3-chloro-6-methoxyquinolin-4-yl)propyl]-1-(3-phenylcyclobutyl)pyrrolidine-3-carboxylic acid] | ≤ 0.0625 | ≤ 0.0625 | ≤ 0.0625 | 8 (≈ 16.7 µM) | ≤ 0.0625 |  |  |  |  | 
